The subject of the test is CD8F1 mice, subcutaneous mammary adenocarcinoma, T/C%. Put plainly: NCI In Vivo Anticancer Drug Screen. Data for tumor model Mammary Adenocarcinoma CD8F1 (subcutaneous) in CD8F1. Conditions: higher = larger tumour. As to the method:
The antitumor activity of compounds was measured in mice bearing transplantable tumors. Survival or tumor size were measured and the results are expressed as the measurement made in the treated group (T) divided by the measurement made in the vehicle treated control group (C). The tumor model used in this assay is Mammary Adenocarcinoma CD8F1 (subcutaneous) in CD8F1

Where [1] appears, read: endpoint: median tumor weight (est.), dose: 50.0 mg/kg/injection, schedule: Q07DX005 (ip), vehicle: saline.
The mark [2] stands for this setting: endpoint: median tumor weight (est.), dose: 100.0 mg/kg/injection, schedule: Q07DX005 (ip), vehicle: saline.
The mark [3] stands for this setting: endpoint: median tumor weight (est.), dose: 25.0 mg/kg/injection, schedule: Q07DX005 (ip), vehicle: saline with Tween-80.
Where [4] appears, read: endpoint: median tumor weight (est.), dose: 100.0 mg/kg/injection, schedule: Q07DX005 (ip), vehicle: saline with Tween-80.
The mark [5] stands for this setting: endpoint: median tumor weight (est.), dose: 200.0 mg/kg/injection, schedule: Q07DX005 (ip), vehicle: saline with Tween-80.
[6] abbreviates: endpoint: median tumor weight (est.), dose: 16.0 mg/kg/injection, schedule: Q07DX005 (ip), vehicle: saline.
Where [7] appears, read: endpoint: median tumor weight (est.), dose: 25.0 mg/kg/injection, schedule: Q07DX005 (ip), vehicle: saline.
[8] abbreviates: endpoint: median tumor weight (est.), dose: 400.0 mg/kg/injection, schedule: Q07DX005 (ip), vehicle: saline.
[9] abbreviates: endpoint: median tumor weight (est.), dose: 200.0 mg/kg/injection, schedule: Q07DX005 (ip), vehicle: saline.
Setting [10] is: endpoint: median tumor weight (est.), dose: 800.0 mg/kg/injection, schedule: Q07DX005 (ip), vehicle: saline.

Structures are written as SMILES. Where “and” joins values, the source holds several entries; their conditions need not be identical. Identical values can stand only once. Records with an inconclusive call do not appear.

Turning to `CCN(CC)CC[n+]1ccc2c(C)c3[nH]c4ccc(O)cc4c3c(C)c2c1`, the T/C by setting is: (endpoint: median tumor weight change, dose: 7.5 mg/kg/injection, schedule: Q01DX001 (ip), vehicle: suspension in saline) 83 % of control; (endpoint: median tumor weight change, dose: 15.0 mg/kg/injection, schedule: Q01DX001 (ip), vehicle: suspension in saline) 72 % of control and 75 % of control; (endpoint: median tumor weight change, dose: 15.6 mg/kg/injection, schedule: Q01DX001 (ip), vehicle: suspension in saline) 78 % of control; (endpoint: median tumor weight change, dose: 31.0 mg/kg/injection, schedule: Q01DX001 (ip), vehicle: suspension in saline) 57 % of control; (endpoint: median tumor weight change, dose: 60.0 mg/kg/injection, schedule: Q01DX001 (ip), vehicle: suspension in saline) 7 % of control and 26 % of control; (endpoint: median tumor weight change, dose: 62.0 mg/kg/injection, schedule: Q01DX001 (ip), vehicle: suspension in saline) 3 % of control.

As to `O=P1(N(CCCl)CCCl)NCCCO1` (configuration not stated), the T/C is, setting by setting: (endpoint: mean tumor weight, dose: 20.0 mg/kg/injection, schedule: Q01DX018 (ip), vehicle: saline) 8 % of control; (endpoint: mean tumor weight, dose: 37.5 mg/kg/injection, schedule: Q07DX004 (ip), vehicle: saline) 3 % of control; (endpoint: mean tumor weight, dose: 40.0 mg/kg/injection, schedule: Q01DX009 (ip), vehicle: saline) 4 % of control and 9 % of control; (endpoint: mean tumor weight, dose: 50.0 mg/kg/injection, schedule: Q07DX004 (ip), vehicle: saline) 3 % of control; (endpoint: median tumor weight (est.), dose: 10.0 mg/kg/injection, schedule: Q01DX005 (ip), vehicle: saline) 55 % of control; (endpoint: median tumor weight (est.), dose: 20.0 mg/kg/injection, schedule: Q01DX005 (ip), vehicle: saline) 1 % of control. Moreover, the T/C runs as follows: (endpoint: median tumor weight (est.), dose: 25.0 mg/kg/injection, schedule: Q01DX005 (ip), vehicle: saline) 80 % of control; (endpoint: median tumor weight (est.), dose: 37.5 mg/kg/injection, schedule: Q01DX005 (ip), vehicle: saline) 17 % of control; (endpoint: median tumor weight (est.), dose: 37.5 mg/kg/injection, schedule: Q04DX005 (ip), vehicle: saline) 60 % of control; (endpoint: median tumor weight (est.), dose: 40.0 mg/kg/injection, schedule: Q01DX005 (ip), vehicle: saline) 8 % of control; (endpoint: median tumor weight (est.), dose: 50.0 mg/kg/injection, schedule: Q01DX005 (ip), vehicle: saline) 15 % of control; (endpoint: median tumor weight (est.), dose: 50.0 mg/kg/injection, schedule: Q04DX005 (ip), vehicle: saline) 11 % of control. Further, the T/C under setting [1] is 27 % of control; the T/C (endpoint: median tumor weight (est.), dose: 67.0 mg/kg/injection, schedule: Q07DX005 (ip), vehicle: saline) was 6 % of control; the T/C (endpoint: median tumor weight (est.), dose: 75.0 mg/kg/injection, schedule: Q01DX005 (ip), vehicle: saline) is 1 % of control; the T/C (endpoint: median tumor weight (est.), dose: 75.0 mg/kg/injection, schedule: Q04DX005 (ip), vehicle: saline) was 1 % of control; the T/C (endpoint: median tumor weight (est.), dose: 75.0 mg/kg/injection, schedule: Q07DX005 (ip), vehicle: saline) was 5 % of control; the T/C (endpoint: median tumor weight (est.), dose: 80.0 mg/kg/injection, schedule: Q01DX005 (ip), vehicle: saline) is 2 % of control. The T/C under setting [2] is 1 % of control; the T/C (endpoint: median tumor weight (est.), dose: 111.0 mg/kg/injection, schedule: Q01DX001 (ip), vehicle: saline) is 32 % of control; the T/C (endpoint: median tumor weight (est.), dose: 167.0 mg/kg/injection, schedule: Q01DX001 (ip), vehicle: saline) is 34 % of control; the T/C (endpoint: median tumor weight (est.), dose: 250.0 mg/kg/injection, schedule: Q01DX001 (ip), vehicle: saline) was 9 % of control; the T/C (endpoint: median tumor weight change, dose: 25.0 mg/kg/injection, schedule: Q01DX001 (ip), vehicle: saline) is 91 % of control; the T/C (endpoint: median tumor weight change, dose: 50.0 mg/kg/injection, schedule: Q01DX001 (ip), vehicle: saline) was 42 % of control and 62 % of control. Besides, the T/C reads like this: (endpoint: median tumor weight change, dose: 100.0 mg/kg/injection, schedule: Q01DX001 (ip), vehicle: saline) 5 % of control and 29 % of control; (endpoint: median tumor weight change, dose: 400.0 mg/kg/injection, schedule: Q01DX001 (ip), vehicle: saline) -56 % of control.

For the compound `CN1CCN(Cc2nc3cccc4c3c([n+]2[O-])-c2ccccc2-4)CC1`, the T/C is, setting by setting: (endpoint: median tumor weight (est.), dose: 12.5 mg/kg/injection, schedule: Q07DX005 (ip), vehicle: saline with Tween-80) 180 % of control; under setting [3], 114 % of control; (endpoint: median tumor weight (est.), dose: 50.0 mg/kg/injection, schedule: Q07DX005 (ip), vehicle: saline with Tween-80) 99 % of control; under setting [4], 120 % of control; under setting [5], 68 % of control.

Take `CNNCc1ccc(C(=O)NC(C)C)cc1`: the T/C under setting [6] was 207 % of control and 101 % of control.

In the case of `C=CS(=O)(=O)c1ccccc1`, the T/C reads like this: (endpoint: mean tumor weight, dose: 25.0 mg/kg/injection, schedule: Q07DX005 (ip), vehicle: saline with Tween-80) 110 % of control; (endpoint: mean tumor weight, dose: 50.0 mg/kg/injection, schedule: Q07DX005 (ip), vehicle: saline with Tween-80) 117 % of control; (endpoint: mean tumor weight, dose: 100.0 mg/kg/injection, schedule: Q07DX005 (ip), vehicle: saline with Tween-80) 114 % of control; (endpoint: mean tumor weight, dose: 200.0 mg/kg/injection, schedule: Q07DX005 (ip), vehicle: saline with Tween-80) 154 % of control.

As to `CCCCCCCCCCCCCCCC(=O)Nc1ccn(C2OC(CO)C(O)C2O)c(=O)n1` (configuration not stated), the T/C reads like this: (endpoint: median tumor weight (est.), dose: 12.5 mg/kg/injection, schedule: Q07DX005 (ip), vehicle: saline) 58 % of control; under setting [7], 63 % of control; under setting [1], 65 % of control; under setting [2], 31 % of control; under setting [8], 14 % of control.

Consider `CC(=S)NC(O)C(=O)c1ccccc1` (configuration not stated), for which the T/C reads like this: under setting [3], 79 % of control; under setting [4], 96 % of control; under setting [5], 111 % of control.

With `C=C(C)[C@H]1Cc2c(ccc3c2O[C@@H]2COc4cc(OC)c(OC)cc4[C@@H]2C3=O)O1`, the T/C was 95 % of control (endpoint: median tumor weight (est.), dose: 4.0 mg/kg/injection, schedule: Q07DX005 (ip), vehicle: saline); 85 % of control (endpoint: median tumor weight (est.), dose: 8.0 mg/kg/injection, schedule: Q07DX005 (ip), vehicle: saline); 102 % of control under setting [6]; 95 % of control (endpoint: median tumor weight (est.), dose: 32.0 mg/kg/injection, schedule: Q07DX005 (ip), vehicle: saline).

`COC1CC(C)C(OC)C2=CC(=O)C=C(NC(=O)/C(C)=C/C=C\C(C)C(OC(N)=O)/C(C)=C\C(C)C1OC)C2=O` (configuration not stated): the T/C runs as follows: (endpoint: median tumor weight change, dose: 6.25 mg/kg/injection, schedule: Q01DX001 (ip), vehicle: saline + alcohol) 152 % of control; (endpoint: median tumor weight change, dose: 12.5 mg/kg/injection, schedule: Q01DX001 (ip), vehicle: saline + alcohol) 91 % of control; (endpoint: median tumor weight change, dose: 25.0 mg/kg/injection, schedule: Q01DX001 (ip), vehicle: saline + alcohol) 72 % of control.

`N#C[C@H](OC1OC(COC2OC(CO)C(O)C(O)C2O)C(O)C(O)C1O)c1ccccc1` (some centres not stated): the T/C reads like this: (endpoint: median tumor weight (est.), dose: 50.0 mg/kg/injection, schedule: Q07DX005 (ip), vehicle: suspension in saline) 75 % of control; under setting [2], 76 % of control; (endpoint: median tumor weight (est.), dose: 100.0 mg/kg/injection, schedule: Q07DX005 (ip), vehicle: suspension in saline) 77 % of control; under setting [9], 95 % of control; (endpoint: median tumor weight (est.), dose: 200.0 mg/kg/injection, schedule: Q07DX005 (ip), vehicle: suspension in saline) 171 % of control; under setting [8], 83 % of control. Besides, the T/C by setting is: (endpoint: median tumor weight (est.), dose: 400.0 mg/kg/injection, schedule: Q07DX005 (ip), vehicle: suspension in saline) 100 % of control; under setting [10], 96 % of control; (endpoint: median tumor weight (est.), dose: 1600.0 mg/kg/injection, schedule: Q07DX005 (ip), vehicle: saline) 41 % of control; (endpoint: median tumor weight (est.), dose: 1600.0 mg/kg/injection, schedule: Q07DX005 (ip), vehicle: suspension in saline) 413 % of control.

Regarding `NC(=O)NO`, the T/C is, setting by setting: under setting [7], 67 % of control; under setting [2], 116 % of control; under setting [9], 56 % of control; under setting [8], 48 % of control; under setting [10], 59 % of control.

The values above are taken from PubChem BioAssay AID220 (DTP/NCI, 2004).
